Experimental findings from patent US8415351B2 (priority 2007, dated 2013) are described below.

For assay [1], the target named is T1, HCV polymerase 1B (Δ21 NS5B, BK) (Hepatitis C virus genotype 1b, UniProt P26663).
T1 construct: 20 to 50 nM Δ21 NS5B
In words: biochemical. The protocol: (§1) HCV Polymerase Inhibition Assay
(§2) Either two-fold serial dilutions (fractional inhibition assay) or a narrower range of dilutions spanning the IC50 of the inhibitor (tight binding assay) of the inhibitors were incubated with 20 mM Tris-Cl pH 7.4, 2 mM MnCl2, 1 mM dithiothreitol, 1 mM ethylene diamine tetraacetic acid (EDTA), 60 to 125 μM GTP and 20 to 50 nM Δ21 NS5B (HCV Strain 1B (BK, Genbank accession number M58335, or H77, Genbank accession number AF011751)) for 15 min at room temperature. The reaction was initiated by the addition of 20 μM CTP, 20 μM ATP, 1 μM ^3H-UTP (10 mCi/umol), 5 nM template RNA and 0.1 U/μl RNase inhibitor (RNasin, Promega), and allowed to proceed for 2 to 4 h at room temperature. Reaction volume was 50 μl. The reaction was terminated by the addition of 1 volume of 4 mM spermine in 10 mM Tris-Cl pH 8.0, 1 mM EDTA. After incubation for at least 15 min at room temperature, the precipitated RNA was captured by filtering through a GF/B filter (Millipore) in a 96 well format. The filter plate was washed three times with 200 μl each of 2 mM spermine, 10 mM Tris-Cl pH 8.0, 1 mM EDTA, and 2 times with ethanol. After air-drying, 30 μl of Microscint 20 scintillation cocktail (Packard) was added to each well, and the retained cpm were determined by scintillation counting. […] Retained cpm were plotted vs. inhibitor concentration and fit to equation 1 using non-linear regression (ref. 1) to obtain the IC50 values: Retained cpm=A[sqrt{(IC50+It−Et)^2+4*IC50*Et}−(IC50+It−Et)]
Ref. Morrison, J. F. and S. R. Stone. 1985. Approaches to the study and analysis of the inhibition of enzymes by slow- and tight-binding inhibitors. Comments Mol. Cell. Biophys. 2: 347-368.
The sequence of the template RNA used was: 5′-[…] […] […] […] […] […] […] […] […] […] […] […] […] […] […] […] […]-3′ (SEQ ID NO: 1)

Assay [2] concerns the target T2, HCV polymerase 1A (Δ21 NS5B, H77) (Hepatitis C virus genotype 1a, UniProt P27958).
T2 construct: 20 to 50 nM Δ21 NS5B
Briefly: biochemical. The settings on record: IC50 1a. The protocol: as §1
as §2, with “The” for “Either two-fold serial dilutions (fractional inhibition assay) or a narrower range of dilutions spanning the IC50 of the inhibitor (tight binding assay) of the inhibitors were incubated with 20 mM Tris-Cl pH 7.4, 2 mM MnCl2, 1 mM dithiothreitol, 1 mM ethylene diamine tetraacetic acid (EDTA), 60 to 125 μM GTP and 20 to 50 nM Δ21 NS5B (HCV Strain 1B (BK, Genbank accession number M58335, or H77, Genbank accession number AF011751)) for 15 min at room temperature. The”
Ref. Morrison, J. F. and S. R. Stone. […] Approaches to the study and analysis of the inhibition of enzymes by slow- and tight-binding inhibitors. Comments Mol. Cell. Biophys.
The sequence of the template RNA used was: 5′-[…]

For assay [3], the system named is genotype 1a-H77 subgenomic replicon cell line. Briefly: microbe, parasite or virus in culture. It counts as cell-based, HCV. The settings on record: Hepatitis C virus, read-out: EC50 1a.
The subject of assay [4] is genotype 1b-Con1 subgenomic replicon cell line. Briefly: microbe, parasite or virus in culture. It counts as cell-based, HCV. The settings on record: Hepatitis C virus, read-out: EC50 1b.

The structures appear in SMILES notation. Some results are limits rather than exact numbers.

T1 sequence (P26663 2420-2989, stated change not applied): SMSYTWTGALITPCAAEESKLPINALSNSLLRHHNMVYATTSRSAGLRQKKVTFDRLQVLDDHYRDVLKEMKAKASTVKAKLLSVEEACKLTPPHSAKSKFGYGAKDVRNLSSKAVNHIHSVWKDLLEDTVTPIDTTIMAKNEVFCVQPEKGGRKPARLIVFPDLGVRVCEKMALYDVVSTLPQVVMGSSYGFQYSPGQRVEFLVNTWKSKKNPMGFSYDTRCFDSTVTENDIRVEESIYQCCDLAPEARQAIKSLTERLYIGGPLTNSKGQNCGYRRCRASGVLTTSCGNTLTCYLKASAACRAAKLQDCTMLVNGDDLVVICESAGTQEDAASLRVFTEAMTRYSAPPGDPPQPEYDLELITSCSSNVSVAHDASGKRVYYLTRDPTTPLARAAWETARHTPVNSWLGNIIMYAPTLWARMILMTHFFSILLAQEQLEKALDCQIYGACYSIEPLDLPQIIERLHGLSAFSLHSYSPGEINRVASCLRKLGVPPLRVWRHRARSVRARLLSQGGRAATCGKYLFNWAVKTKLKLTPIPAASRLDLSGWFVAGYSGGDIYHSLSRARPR
T2 sequence (P27958 2421-2990, stated change not applied): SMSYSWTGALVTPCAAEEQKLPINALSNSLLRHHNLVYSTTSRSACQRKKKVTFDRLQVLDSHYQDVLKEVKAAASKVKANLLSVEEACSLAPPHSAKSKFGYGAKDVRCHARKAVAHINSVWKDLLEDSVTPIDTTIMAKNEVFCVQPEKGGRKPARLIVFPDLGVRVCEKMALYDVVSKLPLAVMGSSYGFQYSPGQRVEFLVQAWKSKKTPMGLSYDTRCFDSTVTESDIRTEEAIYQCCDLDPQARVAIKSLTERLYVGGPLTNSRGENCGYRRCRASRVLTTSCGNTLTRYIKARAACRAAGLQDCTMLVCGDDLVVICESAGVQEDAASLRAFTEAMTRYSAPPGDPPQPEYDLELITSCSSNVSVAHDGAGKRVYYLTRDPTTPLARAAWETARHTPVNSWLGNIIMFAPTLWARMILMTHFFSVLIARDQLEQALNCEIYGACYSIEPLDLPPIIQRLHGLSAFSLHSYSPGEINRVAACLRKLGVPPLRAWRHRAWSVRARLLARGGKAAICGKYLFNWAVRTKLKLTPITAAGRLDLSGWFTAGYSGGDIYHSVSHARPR

What is called IC50 is the midpoint of a concentration-inhibition curve. On to `COc1c(C(=O)Nc2ccc(N(COC(C)=O)S(C)(=O)=O)cc2)cc(N2CCC(=O)NC2=O)cc1C(C)(C)C`, for which the IC50 in assay [1] is more than 1000 nM; in assay [2] it was 100 to 1000 nM.

As for `COc1c(-c2ncc(-c3cccc([N+](=O)[O-])c3)o2)cc(N2CCC(=O)NC2=O)cc1C(C)(C)C` [IA-L0-1.10, 1-(3-tert-butyl-4-methoxy-5-(5-(3-nitrophenyl)oxazol-2-yl)phenyl)dihydropyrimidine-2,4(1H,3H)-dione], the IC50 in assay [1] and in assay [2] was more than 1000 nM in each case.

With `COc1c(-c2ncc(-c3ccc([N+](=O)[O-])cc3)o2)cc(N2CCC(=O)NC2=O)cc1C(C)(C)C` [IA-L0-1.11, 1-(3-tert-butyl-4-methoxy-5-(5-(4-nitrophenyl)oxazol-2-yl)phenyl)dihydropyrimidine-2,4(1H,3H)-dione], the IC50 in assay [1] and in assay [2] was more than 1000 nM in each case.

As to `COc1c(-c2nc3cc(N(S(C)(=O)=O)S(C)(=O)=O)ccc3[nH]2)cc(N2CCC(=O)NC2=O)cc1C(C)(C)C` [IA-L0-2.10, N-(2-(3-tert-butyl-5-(2,4-dioxotetrahydropyrimidin-1(2H)-yl)-2-methoxyphenyl)-1H-benzo[d]imidazol-5-yl)-N-(methylsulfonyl)methanesulfonamide], the IC50 in assay [1] and in assay [2] was more than 1000 nM in each case.

For the compound `CN(C(=O)c1cc(N2CCC(=O)NC2=O)cc(C(C)(C)C)c1O)c1ccccc1` [IA-L3-1.1, 3-tert-butyl-5-(2,4-dioxotetrahydropyrimidin-1(2H)-yl)-2-hydroxy-N-methyl-N-phenyl-benzamide], the IC50 in assay [1] and in assay [2] was more than 1000 nM in each case.

Usually EC50 stands for the concentration needed to bring the measured effect to its halfway point. In the case of `CC(C)(C)c1cc(N2CCC(=O)NC2=O)cc(C(=O)Nc2ccc(OCC#N)cc2)c1O` [IA-L3-1.17, 3-tert-butyl-N-(4-(cyanomethoxy)phenyl)-5-(2,4-dioxotetrahydropyrimidin-1(2H)-yl)-2-hydroxybenzamide], the IC50 in assay [2] was more than 1000 nM. Moreover, the EC50 in assay [3] and in assay [4] was more than 1000 nM each time.

`CC(C)(C)c1cc(N2CCC(=O)NC2=O)cc(C(=O)Nc2ccc(OCC(N)=O)cc2)c1O` [IA-L3-1.18, N-(4-(2-amino-2-oxoethoxy)phenyl)-3-tert-butyl-5-(2,4-dioxotetrahydropyrimidin-1(2H)-yl)-2-hydroxybenzamide] registered an IC50 in assay [2] of more than 1000 nM. Further, the results for the EC50 in assay [3] and in assay [4] were more than 1000 nM and 100 to 1000 nM, respectively.

As to `COc1c(C(=O)Nc2ccc(N(C)S(C)(=O)=O)cc2)cc(N2CCC(=O)N(C)C2=O)cc1C(C)(C)C` [IA-L3-1.25, 3-tert-butyl-N-[4-(methanesulfonyl-methyl-amino)-phenyl]-2-methoxy-5-(3-methyl-2,4-dioxo-tetrahydro-pyrimidin-1-yl)-benzamide], the IC50 in assay [1] and in assay [2] was more than 1000 nM throughout.

Take `COc1c(C(=O)Nc2ccc(C(C)=O)cc2)cc(N2CCC(=O)NC2=O)cc1C(C)(C)C` [IA-L3-1.42, N-(4-acetylphenyl)-3-tert-butyl-5-(2,4-dioxotetrahydropyrimidin-1(2H)-yl)-2-methoxy-benzamide]: the IC50 in assay [1] and in assay [2] was more than 1000 nM each time.

Turning to `CCOC(=O)CC(=O)c1ccc(NC(=O)c2cc(N3CCC(=O)NC3=O)cc(C(C)(C)C)c2OC)cc1` [IA-L3-1.43, ethyl 3-(4-(3-tert-butyl-5-(2,4-dioxotetrahydropyrimidin-1(2H)-yl)-2-methoxybenzamido)phenyl)-3-oxopropanoate], the IC50 in assay [1] and in assay [2] was more than 1000 nM in each case.

With `COc1c(C(=O)Nc2ccc(NC(C)=O)cc2)cc(N2CCC(=O)NC2=O)cc1C(C)(C)C` [IA-L3-1.47, N-(4-acetamidophenyl)-3-tert-butyl-5-(2,4-dioxotetrahydropyrimidin-1(2H)-yl)-2-methoxy-benzamide], the IC50 in assay [1] and in assay [2] was more than 1000 nM each time.

Consider `COc1c(C(=O)Nc2ccc(NC(=O)COC(C)=O)cc2)cc(N2CCC(=O)NC2=O)cc1C(C)(C)C` [IA-L3-1.48, 2-(4-(3-tert-butyl-5-(2,4-dioxotetrahydropyrimidin-1(2H)-yl)-2-methoxybenzamido)phenyl-amino)-2-oxoethyl acetate], for which the IC50 in assay [1] and in assay [2] was more than 1000 nM throughout.

For `COC(=O)Nc1ccc(NC(=O)c2cc(N3CCC(=O)NC3=O)cc(C(C)(C)C)c2OC)cc1` [IA-L3-1.49, Methyl 4-(3-tert-butyl-5-(2,4-dioxotetrahydropyrimidin-1(2H)-yl)-2-methoxybenzamido) phenylcarbamate], the IC50 in assay [1] and in assay [2] was more than 1000 nM in each case.

Regarding `COc1c(C(=O)Nc2ccc(NC(=O)OC(C)(C)C)cc2)cc(N2CCC(=O)NC2=O)cc1C(C)(C)C` [IA-L3-1.50, Tert-butyl 4-(3-tert-butyl-5-(2,4-dioxotetrahydropyrimidin-1(2H)-yl)-2-methoxybenzamido)-phenylcarbamate], the half-inhibitory concentration (IC50) in assay [1] and in assay [2] was more than 1000 nM each time.

Take `CCN(c1ccc(NC(=O)c2cc(N3CCC(=O)NC3=O)cc(C(C)(C)C)c2OC)cc1)S(C)(=O)=O` [IA-L3-1.63, 3-tert-butyl-5-(2,4-dioxotetrahydropyrimidin-1(2H)-yl)-N-(4-(N-ethylmethylsulfonamido)phenyl)-2-methoxybenzamide]: the IC50 in assay [1] and in assay [2] was more than 1000 nM throughout.

In the case of `COc1c(C(=O)Nc2ccc(N(COC(=O)C(C)(C)C)S(C)(=O)=O)cc2)cc(N2CCC(=O)NC2=O)cc1C(C)(C)C` [IA-L3-1.65, (N-(4-(3-tert-butyl-5-(2,4-dioxotetrahydropyrimidin-1(2H)-yl)-2-methoxybenzamido)phenyl)methylsulfonamido)methyl pivalate], the IC50 in assay [1] and in assay [2] was more than 1000 nM throughout.

Take `COc1c(C(=O)Nc2ccc(N(CC3CC3)S(C)(=O)=O)cc2)cc(N2CCC(=O)NC2=O)cc1C(C)(C)C` [IA-L3-1.66, 3-tert-butyl-N-(4-(N-(cyclopropylmethyl)methylsulfonamido)phenyl)-5-(2,4-dioxotetrahydropyrimidin-1(2H)-yl)-2-methoxybenzamide]: the IC50 in assay [1] and in assay [2] was more than 1000 nM in each case.

On to `COc1c(C(=O)Nc2ccc(N(C(=O)C(C)C)S(C)(=O)=O)cc2)cc(N2CCC(=O)NC2=O)cc1C(C)(C)C` [IA-L3-1.72, 3-tert-butyl-5-(2,4-dioxotetrahydropyrimidin-1(2H)-yl)-2-methoxy-N-(4-(N-(methylsulfonyl)isobutyramido)phenyl)benzamide], for which the IC50 in assay [1] and in assay [2] was more than 1000 nM throughout.

`COC(=O)N(c1ccc(NC(=O)c2cc(N3CCC(=O)NC3=O)cc(C(C)(C)C)c2OC)cc1)S(C)(=O)=O` [IA-L3-1.73, Methyl 4-(3-tert-butyl-5-(2,4-dioxotetrahydropyrimidin-1(2H)-yl)-2-methoxybenzamido) phenyl(methylsulfonyl)carbamate]: the IC50 in assay [1] and in assay [2] was more than 1000 nM each time.

For `COc1c(CCc2ccc(NS(C)(=O)=O)cc2)cc(-n2ccc(=O)[nH]c2=O)cc1C(C)(C)C` [IB-L5-2-1.2, N-(4-(3-tert-butyl-5-(2,4-dioxo-3,4-dihydropyrimidin-1(2H)-yl)-2-methoxyphenethyl)phenyl)methanesulfonamide], the EC50 in assay [3] is 100 to 1000 nM; in assay [4], 10 to 100 nM.
